# Measurements: ChEMBL document CHEMBL5154645, “Potent Anti-SARS-CoV-2 Activity by the Natural Product Gallinamide A and Analogues via Inhibition of Cathepsin L” (J Med Chem, 2022)
# The source made the active and inactive calls. The rule behind the calls is not given here.
# Test system: SARS-CoV-2
# Experiment: Antiviral activity against SARS-CoV-2 infected in human A549 cells overexpressing ACE2 assessed as reduction in virus-induced cytopathic effect at 625 nM incubated for 1 hr followed by viral infection measured after 96 hrs by inverted microscopy
# Assay type: functional, organism-based
# Conditions: Severe acute respiratory syndrome coronavirus 2, time 97.0 hrs
smiles,measurement,value
CC[C@H](C)[C@@H](C(=O)O[C@@H](CC(C)C)C(=O)N[C@@H](CC(C)C)C(=O)N[C@@H](C)/C=C/C(=O)N1C(=O)C=C(OC)[C@@H]1C)N(C)C [GALLINAMIDE A],Activity,Active
